Values of other authors as cited in patent US5380533A, “Gastroresistant pharmaceutical formulations for oral administration containing bile acids” (Alfa Wassermann S.p.A., priority 1991, dated 1995).
In brackets after ≈: the same amount, converted by molar mass.

Tests used:
[1] = after having crossed unabsorbed and undissolved the stomach
[2] = intestinal pH below 8.4; intestinal bacterial flora
[3] = pH units
[4] = free bile acid

In the case of `C[C@H](CCC(=O)O)[C@H]1CC[C@H]2[C@@H]3[C@@H](O)C[C@@H]4C[C@H](O)CC[C@]4(C)[C@H]3CC[C@]12C` [ursodeoxycholic acid], the “dissolution in the intestine” value [1] is given as “dissolve very slowly in the intestine”, the “fate of a portion at lower values of intestinal pH” value [2] is given as “is not absorbed and undergoes a biotransformation to lithocholic acid” and the “pH at which complete solubilization takes place” value [3] is given as 8.47. For the same molecule, the water solubility [4] was 53 µM (≈ 20.8 µg/mL).
